The source of these data is patent US11274268B2, “Detergent compositions for removing heavy metals and formaldehyde” (FNG RESEARCH CO., LTD., priority 2017, dated 2022).

Series [1] is described as follows: Formaldehyde removing ability test (GC). To be noted: 2.0% formaldehyde solution, 3 molar equivalents, room temperature.
For another series, the system named is human skin. As to the kind of experiment: Skin irritation test of active ingredient (patch method, CTFA guidelines). To be noted: for Test result (number of subject) (+) / Test result (number of subject) (−) / Test result (number of subject) (++) / Test result (number of subject) (±): 20 subjects, 24 hours patch; for Test result (number of subject) (+): apparent reddening; for Test result (number of subject) (−): no erythema or symptoms; for Test result (number of subject) (++): reddened and swollen; for Test result (number of subject) (±): slightly reddish; for Degree of irritation: Equation 1. It is filed as in vivo. How it is done:
A total of 20 people (10 men and 10 women in their 20s and 30s) were tested for skin irritation using the patch method according to the guidelines of CTFA (The Cosmetic, Toiletry & Fragrance Association, Inc. Washington, D.C.).
A filter paper disk was placed in an 8 mm diameter, 10 panels of pin chamber.
After 24 hours, the pin chamber was removed, and skin conditions were visually observed. The degree and grade for skin irritation were calculated according to the following Equation 1, and the results are shown in Table 3 below.
[Criteria for Skin Irritation]
(−): No erythema or particularly no symptoms; (±): slightly reddish than the periphery; (+): Apparent reddening than periphery; (++): More reddened and swollen than periphery.
[Grade for Skin Irritation]
Degree of irritation 0-0.1: Grade I (unstimulated);
Degree of irritation 0.11-0.3: Grade II (weakly stimulated);
Degree of irritation 0.31-0.5: Grade III (moderately stimulated);
Degree of irritation 0.51 or more: Grade IV (strongly stimulated)

`O=C(O)CN1CCCN(CC(=O)O)CCN(CC(=O)O)CCCN(CC(=O)O)CC1` [Embodiment 9, 2,2′,2″,2′″-(1,4,8,11-tetraazacyclotetradecane-1,4,8,11-tetrayl)tetraacetic Acid]: the “Area (formaldehyde, GC)” value in series [1] (30 min) came out at 0.182 mAU * min. Moreover, the “Area (formaldehyde, GC)” value in series [1] (180 min) was found to be 0 mAU * min. In series [1] (Initial), the “Area (formaldehyde, GC)” value came out at 0.305 mAU * min. Further, in the series with human skin (content 0.1%), the Grade result was “I (Degree of irritation 0-0.1: Grade I (unstimulated))”, the “Test result (number of subject) (+)” value was 0, the “Test result (number of subject) (−)” value was determined as 20 and the “Test result (number of subject) (++)” value is given as 0. In the series with human skin (content 0.1%), the “Test result (number of subject) (±)” value was found to be 0 and the Degree of irritation is listed as 0. For the same compound, in the series on human skin (content 0.5%), the Grade entry was “I (Degree of irritation 0-0.1: Grade I (unstimulated))”, the “Test result (number of subject) (+)” value is on record as 0, the “Test result (number of subject) (−)” value came to 20 and the “Test result (number of subject) (++)” value was 0. In addition, in the series with human skin (content 0.5%), the “Test result (number of subject) (±)” value came out at 0 and the Degree of irritation stood at 0. Moreover, in the series with human skin (content 1.0%), the Grade entry is “I (Degree of irritation 0-0.1: Grade I (unstimulated))”, the “Test result (number of subject) (+)” value worked out at 0, the “Test result (number of subject) (−)” value is 18 and the “Test result (number of subject) (++)” value turned out to be 0. Besides, in the series with human skin (content 1.0%), the “Test result (number of subject) (±)” value was found to be 2 and the Degree of irritation is reported as 0.10.
Turning to `O=C(O)c1ccc(N(CCN(CCN(c2ccc(C(=O)O)cc2)c2ccc(C(=O)O)cc2)c2ccc(C(=O)O)cc2)CCN(c2ccc(C(=O)O)cc2)c2ccc(C(=O)O)cc2)cc1` [Embodiment 2, 4,4′,4″,4′″-(((ethane-1,2-diylbis((4-carboxyphenyl)azanediyl))bis(ethane-2,1-diyl))bis(azanetriyl))tetrabenzoic Acid], the “Area (formaldehyde, GC)” value in series [1] (30 min) was 0.168 mAU * min. Also, the “Area (formaldehyde, GC)” value in series [1] (180 min) stood at 0 mAU * min. Moreover, in series [1] (Initial), the “Area (formaldehyde, GC)” value came out at 0.305 mAU * min. Moreover, in the series on human skin (content 0.1%), the Grade entry is reported as “I (Degree of irritation 0-0.1: Grade I (unstimulated))”, the “Test result (number of subject) (+)” value is given as 0, the “Test result (number of subject) (−)” value was 20 and the “Test result (number of subject) (++)” value was 0. Also, in the series with human skin (content 0.1%), the “Test result (number of subject) (±)” value was found to be 0 and the Degree of irritation was 0. Besides, in the series on human skin (content 0.5%), the Grade entry is given as “I (Degree of irritation 0-0.1: Grade I (unstimulated))”, the “Test result (number of subject) (+)” value is 0, the “Test result (number of subject) (−)” value worked out at 20 and the “Test result (number of subject) (++)” value worked out at 0. In the series with human skin (content 0.5%), the “Test result (number of subject) (±)” value worked out at 0 and the Degree of irritation turned out to be 0. Moreover, in the series with human skin (content 1.0%), the Grade entry is given as “I (Degree of irritation 0-0.1: Grade I (unstimulated))”, the “Test result (number of subject) (+)” value was 0, the “Test result (number of subject) (−)” value is recorded as 19 and the “Test result (number of subject) (++)” value is 0. Further, in the series on human skin (content 1.0%), the “Test result (number of subject) (±)” value is on record as 1 and the Degree of irritation amounted to 0.05.
In the case of `O=C(O)CN1CCN(CC(=O)O)CCN(CC(=O)O)CCN(CC(=O)O)CC1` [Embodiment 5, 2,2′,2″,2′″-(1,4,7,10-tetraazacyclododecane-1,4,7,10-tetrayl)tetraacetic Acid], the “Area (formaldehyde, GC)” value in series [1] (30 min) amounted to 0.179 mAU * min. For the same compound, the “Area (formaldehyde, GC)” value in series [1] (180 min) is 0 mAU * min. Also, the “Area (formaldehyde, GC)” value in series [1] (Initial) amounted to 0.305 mAU * min. In the series on human skin (content 0.1%), the Grade entry is given as “I (Degree of irritation 0-0.1: Grade I (unstimulated))”, the “Test result (number of subject) (+)” value was found to be 0, the “Test result (number of subject) (−)” value came to 20 and the “Test result (number of subject) (++)” value was 0. Moreover, in the series on human skin (content 0.1%), the “Test result (number of subject) (±)” value amounted to 0 and the Degree of irritation was 0. In addition, in the series on human skin (content 0.5%), the Grade entry is “I (Degree of irritation 0-0.1: Grade I (unstimulated))”, the “Test result (number of subject) (+)” value turned out to be 0, the “Test result (number of subject) (−)” value amounted to 20 and the “Test result (number of subject) (++)” value is 0. For the same compound, in the series with human skin (content 0.5%), the “Test result (number of subject) (±)” value came out at 0 and the Degree of irritation is 0. In addition, in the series on human skin (content 1.0%), the Grade result is listed as “I (Degree of irritation 0-0.1: Grade I (unstimulated))”, the “Test result (number of subject) (+)” value worked out at 0, the “Test result (number of subject) (−)” value is given as 19 and the “Test result (number of subject) (++)” value came out at 0. Moreover, in the series with human skin (content 1.0%), the “Test result (number of subject) (±)” value is listed as 1 and the Degree of irritation was 0.05.
In the case of `O=C(O)c1cncc(N2CCCN(c3cncc(C(=O)O)c3)CCN(c3cncc(C(=O)O)c3)CCCN(c3cncc(C(=O)O)c3)CC2)c1` [Embodiment 11, 5,5′,5″,5′″-(1,4,8,11-tetraazacyclotetradecane-1,4,8,11-tetrayl)tetranicotinic Acid], in series [1] (30 min), the “Area (formaldehyde, GC)” value is 0.174 mAU * min. The “Area (formaldehyde, GC)” value in series [1] (180 min) stood at 0 mAU * min. In series [1] (Initial), the “Area (formaldehyde, GC)” value stood at 0.305 mAU * min. In the series on human skin (content 0.1%), the Grade entry is listed as “I (Degree of irritation 0-0.1: Grade I (unstimulated))”, the “Test result (number of subject) (+)” value was determined as 0, the “Test result (number of subject) (−)” value amounted to 20 and the “Test result (number of subject) (++)” value was found to be 0. For the same compound, in the series on human skin (content 0.1%), the “Test result (number of subject) (±)” value is listed as 0 and the Degree of irritation worked out at 0. For the same compound, in the series on human skin (content 0.5%), the Grade result is “I (Degree of irritation 0-0.1: Grade I (unstimulated))”, the “Test result (number of subject) (+)” value is on record as 0, the “Test result (number of subject) (−)” value worked out at 20 and the “Test result (number of subject) (++)” value was 0. In addition, in the series with human skin (content 0.5%), the “Test result (number of subject) (±)” value turned out to be 0 and the Degree of irritation was found to be 0. For the same compound, in the series with human skin (content 1.0%), the Grade entry was “I (Degree of irritation 0-0.1: Grade I (unstimulated))”, the “Test result (number of subject) (+)” value worked out at 0, the “Test result (number of subject) (−)” value turned out to be 18 and the “Test result (number of subject) (++)” value was 0. Besides, in the series with human skin (content 1.0%), the “Test result (number of subject) (±)” value turned out to be 2 and the Degree of irritation was 0.10.
Take `NCCNCCNCCN` [Trientine, Triethylenetetramine, reference compound]: the “Area (formaldehyde, GC)” value in series [1] (30 min) was determined as 0.168 mAU * min. In series [1] (180 min), the “Area (formaldehyde, GC)” value is reported as 0 mAU * min. Besides, the “Area (formaldehyde, GC)” value in series [1] (Initial) was found to be 0.305 mAU * min. For the same compound, in the series with human skin (content 0.1%), the Grade result was “I (Degree of irritation 0-0.1: Grade I (unstimulated))”, the “Test result (number of subject) (+)” value is reported as 0, the “Test result (number of subject) (−)” value amounted to 20 and the “Test result (number of subject) (++)” value amounted to 0. Besides, in the series on human skin (content 0.1%), the “Test result (number of subject) (±)” value came out at 0 and the Degree of irritation is given as 0. Moreover, in the series with human skin (content 0.5%), the Grade entry is “I (Degree of irritation 0-0.1: Grade I (unstimulated))”, the “Test result (number of subject) (+)” value is 0, the “Test result (number of subject) (−)” value turned out to be 19 and the “Test result (number of subject) (++)” value is on record as 0. Moreover, in the series with human skin (content 0.5%), the “Test result (number of subject) (±)” value is recorded as 1 and the Degree of irritation turned out to be 0.05. For the same compound, in the series on human skin (content 1.0%), the Grade entry is given as “II (Degree of irritation 0.11-0.3: Grade II (weakly stimulated))”, the “Test result (number of subject) (+)” value is recorded as 0, the “Test result (number of subject) (−)” value was found to be 17 and the “Test result (number of subject) (++)” value worked out at 0. Moreover, in the series with human skin (content 1.0%), the “Test result (number of subject) (±)” value stood at 3 and the Degree of irritation was determined as 0.15.
For `O=C(O)c1ccc(N(CCN(CCN(c2ccc(C(=O)O)o2)c2ccc(C(=O)O)o2)c2ccc(C(=O)O)o2)CCN(c2ccc(C(=O)O)o2)c2ccc(C(=O)O)o2)o1` [Embodiment 4, 5,5′,5″,5′″-(((ethane-1,2-diylbis((5-carboxyfuran-2-yl)azanediyl))bis(ethane-2,1-diyl))bis(azanetriyl))tetrakis(furan-2-carboxylic Acid)], the “Area (formaldehyde, GC)” value in series [1] (30 min) was determined as 0.173 mAU * min. Further, the “Area (formaldehyde, GC)” value in series [1] (180 min) was 0 mAU * min. Further, the “Area (formaldehyde, GC)” value in series [1] (Initial) is given as 0.305 mAU * min. Further, in the series on human skin (content 0.1%), the Grade result is “I (Degree of irritation 0-0.1: Grade I (unstimulated))”, the “Test result (number of subject) (+)” value is 0, the “Test result (number of subject) (−)” value is 20 and the “Test result (number of subject) (++)” value came out at 0. Further, in the series on human skin (content 0.1%), the “Test result (number of subject) (±)” value worked out at 0 and the Degree of irritation is given as 0. Also, in the series on human skin (content 0.5%), the Grade entry was “I (Degree of irritation 0-0.1: Grade I (unstimulated))”, the “Test result (number of subject) (+)” value turned out to be 0, the “Test result (number of subject) (−)” value is 20 and the “Test result (number of subject) (++)” value is listed as 0. In the series with human skin (content 0.5%), the “Test result (number of subject) (±)” value stood at 0 and the Degree of irritation turned out to be 0. Besides, in the series on human skin (content 1.0%), the Grade result was “I (Degree of irritation 0-0.1: Grade I (unstimulated))”, the “Test result (number of subject) (+)” value was 0, the “Test result (number of subject) (−)” value is listed as 19 and the “Test result (number of subject) (++)” value is 0. In addition, in the series with human skin (content 1.0%), the “Test result (number of subject) (±)” value is 1 and the Degree of irritation was found to be 0.05.
